Values joined by “and” are separate entries in the source; they are usually repeats but may differ in a detail not shown here. Equal entries are not always repeated. Where two headings read alike, the source gives them in different places.
Key:
[1] = target: T1, human AR (androgen receptor) (Homo sapiens, UniProt P10275); test: Steroid hormone nuclear receptor binding assay, AR binding
T1 construct: expressed in transfected cells; host or cells: 293 cells (293-AR lysate)
T1 sequence (P10275 1-920): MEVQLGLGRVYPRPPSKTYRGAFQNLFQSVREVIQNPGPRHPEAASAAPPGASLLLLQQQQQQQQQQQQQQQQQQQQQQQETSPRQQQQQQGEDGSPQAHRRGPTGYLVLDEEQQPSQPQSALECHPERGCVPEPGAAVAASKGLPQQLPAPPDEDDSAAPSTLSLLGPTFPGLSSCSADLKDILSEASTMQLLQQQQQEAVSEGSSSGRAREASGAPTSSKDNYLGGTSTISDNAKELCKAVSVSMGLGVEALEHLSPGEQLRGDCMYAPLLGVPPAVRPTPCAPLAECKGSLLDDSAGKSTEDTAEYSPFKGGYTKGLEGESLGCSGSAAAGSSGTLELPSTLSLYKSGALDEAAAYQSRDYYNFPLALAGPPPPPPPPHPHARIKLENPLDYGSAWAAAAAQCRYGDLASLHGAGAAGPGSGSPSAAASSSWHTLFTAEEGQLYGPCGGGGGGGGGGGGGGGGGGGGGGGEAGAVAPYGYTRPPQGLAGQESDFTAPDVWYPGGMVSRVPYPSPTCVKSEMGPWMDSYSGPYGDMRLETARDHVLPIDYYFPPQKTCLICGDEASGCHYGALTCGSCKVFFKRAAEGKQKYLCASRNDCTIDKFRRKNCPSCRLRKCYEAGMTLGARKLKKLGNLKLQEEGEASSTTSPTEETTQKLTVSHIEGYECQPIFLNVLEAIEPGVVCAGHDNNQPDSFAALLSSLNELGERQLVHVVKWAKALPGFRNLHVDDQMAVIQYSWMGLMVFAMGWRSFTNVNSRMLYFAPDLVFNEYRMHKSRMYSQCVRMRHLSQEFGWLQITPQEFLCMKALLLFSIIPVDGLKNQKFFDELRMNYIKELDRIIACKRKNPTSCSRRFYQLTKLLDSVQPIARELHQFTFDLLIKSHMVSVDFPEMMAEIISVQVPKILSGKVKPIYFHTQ
In short: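 Competition binding with lysates of 293 cells overexpressing human AR, [3H]-methyltrienolone tracer, compounds from about 0.01 nM to 10 μM, overnight at 4 °C; non-specific binding set with 500 nM methyltrienolone. Bound tracer counted by scintillation after charcoal-dextran separation; IC50 converted to Ki by Cheng-Prusoff using Kd from saturation binding.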

[2] = target: T2, human androgen receptor (AR) (Homo sapiens, UniProt P10275); test: C2C12 AR/ARE reporter assay; assay type: cell-based; details: for Emax: C2C12, read-out: C2C12 % Efficacy
T2 construct: expressed in transfected cells; host or cells: mouse myoblast C2C12 cells, transiently co-transfected
T2 sequence (P10275 1-920): T1 sequence (P10275 1-920)
In short: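 Mouse C2C12 myoblasts co-transfected with AR/ARE reporter were plated in charcoal-stripped serum and treated for 48 h with compound from about 0.01 nM to 10 μM. Luciferase activity gave EC50 by 4-parameter logistic fit. Efficacy is expressed as % of maximal stimulation by 10 nM methyltrienolone.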

SMILES	melting point	Ki [1]	EC50 [2]	Emax [2]	Ki ([1]; read-out: AR binding Ki, average of n trials)	EC50 ([2]; read-out: C2C12 EC50, C2C12 AR/ARE reporter assay, average of n trials)
COc1ccc(Cn2c3c(c4cc(Br)ccc42)CC(NC(=O)C(C)C)CC3)cc1 (stereo not drawn) [Example 41]	120 to 125 °C	43.2 nM	1820 nM	46.6%	–	–
Cc1ccc2c(c1)c1c(n2Cc2ccccc2)CCC(NC(=O)C(C)C)C1 (stereo not drawn) [Example 42]	197 to 199 °C	63.6 nM	30.4 nM	73%	–	–
COc1cc2c3c(n(Cc4cccc(F)c4)c2cc1Cl)CCC(NC(=O)C(C)C)C3 (stereo not drawn) [Example 59]	212 to 215 °C	59 nM	242 nM	39.5%	–	–
CC(C)C(=O)NC1CCc2c(c3cc(Cl)ccc3n2Cc2ccccc2Cl)C1 (stereo not drawn) [Example 18]	197 to 199 °C	10.5 nM	153 nM	82.1%	–	–
Cc1cc(-c2ccc3c(c2)c2c(n3Cc3cccc(F)c3)CC[C@@H](NC(=O)C3CC3)C2)no1 [Example 204, (R)-Cyclopropanecarboxylic acid[9-(3-fluoro-benzyl)-6-(5-methyl-isoxazol-3-yl)-2,3,4,9-tetrahydro-1H-carbazol-3-yl]-amide]	190 to 192 °C	6.8 nM	2.7 nM	90.8%	–	–
CCOC(=O)c1ccc2c(c1)c1c(n2Cc2cccc(F)c2)CCC(NC(=O)C(C)C)C1 (stereo not drawn) [Example 52]	226 to 228 °C	6.1 nM	5.6 nM	73.2%	–	–
CC(C)C(=O)NC1CCc2c(c3cc(C#N)ccc3n2Cc2ncccc2F)C1 (stereo not drawn) [Example 182, N-[6-Cyano-9-(3-fluoro-pyridin-2-ylmethyl)-2,3,4,9-tetrahydro-1H-carbazol-3-yl]-isobutyramide]	213 to 216 °C	28.4 nM	151 nM	88.7%	–	–
CC(C)C(=O)NC1CCc2c(c3cc(F)ccc3n2Cc2ccc(C#N)cc2)C1 (stereo not drawn) [Example 14]	181 to 184 °C	81.4 nM	927 nM	36.4%	–	–
CC(C)C(=O)NC1CCc2c(c3cc(C#N)ccc3n2Cc2ccccc2OC(F)(F)F)C1 (stereo not drawn) [Example 100, N-[6-Cyano-9-(2-trifluoromethoxy-benzyl)-2,3,4,9-tetrahydro-1H-carbazol-3-yl]-isobutyramide]	224 to 225 °C	8 nM	126 nM	87.6%	–	–
CC(C)C(=O)NC1CCc2c(c3cc(F)ccc3n2Cc2ccc(F)cc2)C1 (stereo not drawn) [Example 12]	166 to 168 °C	25 nM	186 nM	50%	–	–
Cc1ccc2c(c1)c1c(n2Cc2cccc(Cl)c2)CCC(NC(=O)C(C)C)C1 (stereo not drawn) [Example 48]	190 to 192 °C	9.4 nM	116 nM	69.5%	–	–
COc1cccc(Cn2c3c(c4cc(Br)ccc42)CC(NC(=O)C(C)C)CC3)c1 (stereo not drawn) [Example 37]	176 to 180 °C	9.1 nM	109 nM	95.5%	–	–
CC(C)C(=O)NC1CCc2c(c3cc(C(F)(F)F)ccc3n2Cc2cccc(F)c2)C1 (stereo not drawn) [Example 55]	131 to 138 °C	11.2 nM	2.5 nM	82.9%	–	–
CC(C)C(=O)NC1CCc2c(c3cc(Cl)ccc3n2Cc2ccc(C#N)cc2)C1 (stereo not drawn) [Example 28]	158 to 162 °C	12.8 nM	301 nM	64.3%	–	–
CC(C)C(=O)NC1CCc2c(c3cc(F)ccc3n2Cc2cccc(F)c2)C1 (stereo not drawn) [Example 8]	181 to 184 °C	2.5 nM	57.8 nM	108%	–	–
Cc1ccc2c(c1)c1c(n2Cc2ccccc2Cl)CCC(NC(=O)C(C)C)C1 (stereo not drawn) [Example 44]	194 °C	94.2 nM	305 nM	71.1%	–	–
CC(C)C(=O)NC1CCc2c(c3ccccc3n2Cc2ccccc2)C1 (stereo not drawn) [Example 2]	191 to 193 °C	17.7 nM	313 nM	59.4%	–	–
CC(C)C(=O)NC1CCc2c(c3cc(Br)ccc3n2Cc2ccc(Cl)cc2)C1 (stereo not drawn) [Example 40]	142 to 149 °C	30.9 nM	188 nM	68%	–	–
COC(=O)Nc1ccc2c(c1)c1c(n2Cc2cccc(F)c2)CC[C@@H](NC(=O)C(C)C)C1 [Example 190, (R)-[9-(3-Fluorobenzyl)-6-isobutyrylamino-6,7,8,9-tetrahydro-5H-carbazol-3-yl]-carbamic acid methyl ester]	111 to 115 °C	6.7 nM	2.2 nM	86%	–	–
COc1ccc(Cn2c3c(c4cc(F)ccc42)CC(NC(=O)C(C)C)CC3)cc1 (stereo not drawn) [Example 15]	178 to 181 °C	275 nM	–	15.3%	–	–
CO/N=C/c1ccc2c(c1)c1c(n2Cc2ccccn2)CCC(NC(=O)C2CC2)C1 (stereo not drawn) [Example 207, Cyclopropanecarboxylic acid[6-(1-methoxyimino-methyl)-9-pyridin-2-ylmethyl-2,3,4,9-tetrahydro-1H-carbazol-3-yl]-amide]	88 to 92 °C	41.6 nM	11.6 nM	93.3%	–	–
N#Cc1ccc2c(c1)c1c(n2Cc2cccc(F)c2)CCC(NC(=O)C2CC2)C1 (stereo not drawn) [Example 193, Cyclopropanecarboxylic acid[6-cyano-9-(3-fluorobenzyl)-2,3,4,9-tetrahydro-1H-carbazol-3-yl]amide]	208 to 210 °C and 207 to 209 °C	4.3 nM	7.9 nM	92.7%	–	–
CC(C)C(=O)NC1CCc2c(c3cc(Br)ccc3n2Cc2cccc(F)c2)C1 (stereo not drawn) [Example 1, N-[9-(3-Fluorobenzyl)-6-bromo-2,3,4,9-tetrahydro-1H-carbazol-3-yl]isobutyramide]	177 to 179 °C	–	–	–	2.6 nM	2.3 nM

Reference: patent publication US7935722B2 (Eli Lilly and Company, priority 2005, dated 2011)
